From US20230193350A1, “METHOD FOR DIAGNOSING AND TREATING BLOOD CANCER” (Ohara Pharmaceutical Co., Ltd., priority 2020, published 2023)

Columns and labels:
Format in all cases: cell-based
DUSP5 mRNA = experiment: Expression amount of DUSP5 mRNA in MT-1 cells by RT-PCR; settings: 4 days culture, FIG. 2A
Description: (§1) MT-1 cells (ATL-derived cell lines) were purchased from JCRB Cell Bank and cultured in an RPMI1640 culture solution comprising 10% fetal bovine serum (FBS) and 1% penicillin-streptomycin in an environment of 37° C. and 5% CO2. The culture was started by additions of OR21, a DNA methyl transferase inhibitor and/or EPZ-6438, a histone methyl transferase inhibitor to a culture solution of MT-1 cells, exchanged with a fresh culture solution comprising the inhibitors after 2 days, and further cultured for 2 days. After culturing, the cells were collected and total RNA was extracted, and the expression amount of DUSP5 mRNA was measured by RT-PCR using SYBR @ Green (Takara Bio).

DUSP5 protein = experiment: Expression amount of DUSP5 protein in MT-1 cells by Western blotting; settings: 4 days culture, FIG. 2B
Description: as §1, with “dissolved,” for “total RNA was extracted,”, “protein” for “mRNA”, “Western blotting.” for “RT-PCR using SYBR @ Green (Takara Bio).”

MT-1 cells = experiment: Proliferation of MT-1 cells (Cell Countdown Kit-8, formazan absorbance); settings: 4 days, FIG. 3
Description: MT-1 cells (ATL-derived cell lines) were purchased from JCRB Cell Bank. MT-1 cells were seeded on a 24-well plate at 0.4×10^5 cells/0.9 mL/well and cultured for 3 hours in an RPMI1640 culture solution comprising 10% fetal bovine serum (FBS) and 1% penicillin-streptomycin in an environment of 37° C. and 5% CO2. Then, OR21, a DNA methyl transferase inhibitor and/or EPZ-6438 or DS-3201b, histone methyl transferase inhibitors were dissolved in the same culture solution, and 0.1 mL thereof was added to each well, and cultured for 4 days while exchanging with a fresh culture solution comprising each inhibitor every two days. The final concentrations of the inhibitors in the culture solution were 0.5 μM for OR21, 2.5 μM for EPZ-6438, and 0.1 μM, 0.5 μM, and 2.5 μM for DS-3201b. In addition, groups of single and combined additions of each inhibitor were provided. The effect of each inhibitor on cell proliferation was measured using Cell Countdown Kit-8 (Dojindo Laboratories). The water-soluble formazan in each well produced from reduction of tetrazolium salt […] was measured at two wavelength (450 nm/620 nm) using a plate reader (Varioskan Flash, Thermo-Fisher Scientific). The results are expressed as relative values with the absorbance of the wells in which no inhibitor was added as 100%.

With `CC[Si](CC)(CC)OC[C@H]1O[C@@H](n2cnc(N)nc2=O)C[C@@H]1O` [OR21, 5′-O-triethylsilyl-2′-deoxy-5-azacytidine] the “DUSP5 mRNA expression” value (DUSP5 mRNA; OR21 at 0.1 μM and 0.5 μM) was “enhanced DUSP5 mRNA expression in a concentration-dependent manner”, the “expression amount of DUSP5 protein” value (DUSP5 protein; OR21 0.5 μM) was “apparent increase” and the “proliferation of MT-1 cells” value (MT-1 cells; OR21 0.5 μM) was “exhibited an effect of inhibiting proliferation”.
With `Cc1cc(C)c(CNC(=O)c2cc(Cl)c3c(c2C)O[C@@](C)([C@H]2CC[C@H](N(C)C)CC2)O3)c(=O)[nH]1.Cc1ccc(S(=O)(=O)O)cc1` [DS-3201b, 4-methylbenzene-1-sulfonic acid (2R)-7-chloro-2-[(trans)-4-(dimethylamino)cyclohexyl]-N-[(4,6-dimethyl-2-oxo-1,2-dihydropyridin-3-yl)methyl]-2,4-dimethyl-2H-1,3-benzodioxole-5-carboxamide] the “proliferation of MT-1 cells” value (MT-1 cells; DS-3201b 0.1 μM to 2.5 μM) was “hardly affected”.
With `CCN(c1cc(-c2ccc(CN3CCOCC3)cc2)cc(C(=O)NCc2c(C)cc(C)[nH]c2=O)c1C)C1CCOCC1` [EPZ-6438, N-[(4,6-dimethyl-2-oxo-1,2-dihydropyridin-3-yl)methyl]-5-[ethyl(tetrahydro-2H-pyran-4-yl)amino]-4-methyl-4′-(morpholin-4-ylmethyl) biphenyl-3-carboxamide] the “DUSP5 mRNA expression” value (DUSP5 mRNA; EPZ-6438 at 0.5 μM and 2.5 μM) was “almost no effect”, the “expression amount of DUSP5 protein” value (DUSP5 protein; EPZ-6438 2.5 μM) was “almost no effect” and the “proliferation of MT-1 cells” value (MT-1 cells; EPZ-6438 2.5 μM) was “hardly affected”.
